{"source": "patent EP2818471A1", "about": "“Nitrogen bicyclic compounds as inhibitors for Scyl1 and Grk5” (Max-Planck-Gesellschaft zur Förderung der Wissenschaften …, priority 2013, dated 2014)"}
{"system": "beta-TC6 cells", "assay": "Insulin HTRF assay, relative activity Ar normalized to sunitinib", "type": "cell-based", "conditions": "Mus musculus, normalized to positive control sunitinib (5 µM = 100%), Table 10", "method_in_brief": "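beta-TC6 cells (15k/well) were seeded for 24 or 48 h, washed and exposed to test compound or sunitinib (5 µM f.c.) in induction buffer with 0.5% DMSO for 2, 3 or 4 h at 37°C. Secreted insulin in the supernatant was measured by two-antibody HTRF after 120 min at RT. Ar = (V − 0% control)/(100% control − 0% control) × 100.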", "units": {"Emax": "%"}}
{"smiles": "CS(=O)(=O)Nc1cccc(-c2cn3c(-c4cccnc4)cnc3cn2)c1", "note": "[compound 318, N-[3-[3-(3-pyridyl)imidazo[1,2-a]pyrazin-6-yl]phenyl]methanesulfonamide]", "Emax": "20 to 50"}
{"smiles": "CN(C)CCCNC(=O)c1ccc(-c2cn3c(-c4ccc(N(C)C)cc4)cnc3cn2)cc1", "note": "[compound 285, 4-[3-(4-dimethylaminophenyl)imidazo[1,2-a]pyrazin-6-yl]-N-[3-(dimethylamino)propyl]benzamide]", "Emax": "50 to 100"}
{"smiles": "COc1cc(OC)cc(-c2cnc3cnc(-c4cccc(OC(C)C)c4)cn23)c1", "note": "[compound 437, 3-(3,5-dimethoxyphenyl)-6-(3-isopropoxyphenyl)imidazo[1,2-a]pyrazine]", "Emax": "20 to 50"}
{"smiles": "Oc1cccc(-c2cnc3cnc(-c4ccc(Cl)cc4)cn23)c1", "note": "[compound 365, 3-[6-(4-chlorophenyl)imidazo[1,2-a]pyrazin-3-yl]phenol]", "Emax": "20 to 50"}
{"smiles": "CN1CCN(C(=O)c2ccc(-c3cnc4cnc(/C=C/c5ccccc5)cn34)cc2)CC1", "note": "[compound 402, (4-methylpiperazin-1-yl)-[4-[6-[(E)-styryl]imidazo[1,2-a]pyrazin-3-yl]phenyl]methanone]", "Emax": "10 to 20"}
{"smiles": "c1cncc(CCNc2ccc3ncc(-c4ccc5ccccc5c4)n3n2)c1", "note": "[compound 25, 3-(2-naphthyl)-N-[2-(3-pyridyl)ethyl]imidazo[1,2-b]pyridazin-6-amine]", "Emax": "10 to 20"}
{"smiles": "CN(C)CCCOc1ccc(-c2nnc3ccc(-c4ccc(Cl)cc4)cn23)cc1", "note": "[compound 237, 3-[4-[6-(4-chlorophenyl)-[1,2,4]triazolo[4,3-a]pyridin-3-yl]phenoxy]-N,N-dimethyl-propan-1-amine]", "Emax": "20 to 50"}
{"smiles": "c1cc(-c2nnc3ccc(-c4ccc(N5CCOCC5)cc4)cn23)ccn1", "note": "[compound 176, 4-[4-[3-(4-pyridyl)-[1,2,4]triazolo[4,3-a]pyridin-6-yl]phenyl]morpholine]", "Emax": "20 to 50"}
{"smiles": "FC(F)(F)c1cccc(C#Cc2ccc3nnc(-c4ccncc4)n3c2)c1", "note": "[compound 180, 3-(4-pyridyl)-6-[2-[3-(trifluoromethyl)phenyl]ethynyl]-[1,2,4]triazolo[4,3-a]pyridine]", "Emax": "10 to 20"}
{"smiles": "COc1cc(-c2ccc3nnc(-c4ccc5nccnc5c4)n3c2)ccc1O", "note": "[compound 244, 2-methoxy-4-(3-quinoxalin-6-yl-[1,2,4]triazolo[4,3-a]pyridin-6-yl)phenol]", "Emax": "50 to 100"}
{"smiles": "CN(C)c1ccc(-c2cnc3cnc(-c4cccc(C(N)=O)c4)cn23)cc1", "note": "[compound 292, 3-[3-(4-dimethylaminophenyl)imidazo[1,2-a]pyrazin-6-yl]benzamide]", "Emax": "20 to 50"}
{"smiles": "COc1ccc(-c2nnc3ccc(-c4cccs4)cn23)cc1OC", "note": "[compound 191, 3-(3,4-dimethoxyphenyl)-6-(2-thienyl)-[1,2,4]triazolo[4,3-a]pyridine]", "Emax": "50 to 100"}
{"smiles": "Cn1cncc1C#Cc1ccc2nnc(-c3ccc4c(c3)OCO4)n2c1", "note": "[compound 172, 3-(1,3-benzodioxol-5-yl)-6-[2-(3-methylimidazol-4-yl)ethynyl]-[1,2,4]triazolo[4,3-a]pyridine]", "Emax": "20 to 50"}
{"smiles": "CN(C)c1ccc(-c2ccc3ncc(-c4ccc(CO)cc4)n3n2)cc1", "note": "[compound 129, [4-[6-(4-dimethylaminophenyl)imidazo[1,2-b]pyridazin-3-yl]phenyl]methanol]", "Emax": "50 to 100"}
{"smiles": "Clc1cccc(-c2nnc3ccc(-c4ncccn4)cn23)c1", "note": "[compound 204, 3-(3-chlorophenyl)-6-pyrimidin-2-yl-[1,2,4]triazolo[4,3-a]pyridine]", "Emax": "10 to 20"}
{"smiles": "COc1cc(-c2nnc3ccc(-c4ccccc4C)cn23)ccc1O", "note": "[compound 218, 2-methoxy-4-[6-(o-tolyl)-[1,2,4]triazolo[4,3-a]pyridin-3-yl]phenol]", "Emax": "50 to 100"}
{"smiles": "COc1cc(-c2cnc3cnc(-c4ccc(OCCCN(C)C)nc4)cn23)ccc1O", "note": "[compound 391, 4-[6-[6-[3-(dimethylamino)propoxy]-3-pyridyl]imidazo[1,2-a]pyrazin-3-yl]-2-methoxy-phenol]", "Emax": "20 to 50"}
{"smiles": "COc1ccc(-c2nnc3ccc(C#Cc4ccncc4)cn23)cc1OC", "note": "[compound 190, 3-(3,4-dimethoxyphenyl)-6-[2-(4-pyridyl)ethynyl]-[1,2,4]triazolo[4,3-a]pyridine]", "Emax": "50 to 100"}
{"smiles": "CC(=O)c1ccc(-c2cnc3cccnn23)cc1", "note": "[compound 87, 1-(4-imidazo[1,2-b]pyridazin-3-ylphenyl)ethanone]", "Emax": "10 to 20"}
{"smiles": "CC(=O)Nc1cccc(-c2cnc3ccc(-c4cccnc4)nn23)c1", "note": "[compound 109, N-[3-[6-(3-pyridyl)imidazo[1,2-b]pyridazin-3-yl]phenyl]acetamide]", "Emax": "10 to 20"}
{"smiles": "CCOc1cccc(-c2cn3c(-c4ccc(CCC(=O)O)cc4)cnc3cn2)c1", "note": "[compound 328, 3-[4-[6-(3-ethoxyphenyl)imidazo[1,2-a]pyrazin-3-yl]phenyl]propanoic acid]", "Emax": "≥ 100"}
{"smiles": "COc1ccccc1-c1cn2c(NC(=O)c3ccccc3)cnc2cn1", "note": "[compound 267, N-[6-(2-methoxyphenyl)imidazo[1,2-a]pyrazin-3-yl]benzamide]", "Emax": "20 to 50"}
{"smiles": "CN1CCN(c2ccc(-c3cn4c(-c5ccc(C(=O)N(C)C)cc5)cnc4cn3)cn2)CC1", "note": "[compound 429, N,N-dimethyl-4-[6-[6-(4-methylpiperazin-1-yl)-3-pyridyl]imidazo[1,2-a]pyrazin-3-yl]benzamide]", "Emax": "20 to 50"}
{"smiles": "CC(=O)Nc1ccc(-c2cnc3ccc(-c4ccc5c(c4)OCO5)nn23)cc1", "note": "[compound 148, N-[4-[6-(1,3-benzodioxol-5-yl)imidazo[1,2-b]pyridazin-3-yl]phenyl]acetamide]", "Emax": "≥ 100"}
{"smiles": "COc1ccc(-c2ccc3nnc(-c4ccccc4)n3c2)c(C)c1", "note": "[compound 166, 6-(4-methoxy-2-methyl-phenyl)-3-phenyl-[1,2,4]triazolo[4,3-a]pyridine]", "Emax": "≥ 100"}
{"smiles": "COc1cc(OC)cc(-c2cn3c(-c4cccs4)cnc3cn2)c1", "note": "[compound 426, 6-(3,5-dimethoxyphenyl)-3-(2-thienyl)imidazo[1,2-a]pyrazine]", "Emax": "20 to 50"}
{"smiles": "Oc1cccc(-c2ccc3ncc(-c4cccc(C(F)(F)F)c4)n3n2)c1", "note": "[compound 135, 3-[3-[3-(trifluoromethyl)phenyl]imidazo[1,2-b]pyridazin-6-yl]phenol]", "Emax": "20 to 50"}
{"smiles": "COc1ccc(CNc2ccc3ncc(-c4ccc(O)cc4)n3n2)cc1", "note": "[compound 36, 4-[6-[(4-methoxyphenyl)methylamino]imidazo[1,2-b]pyridazin-3-yl]phenol]", "Emax": "20 to 50"}
{"smiles": "CCOc1ccc(-c2cnc3cccnn23)cc1", "note": "[compound 85, 3-(4-ethoxyphenyl)imidazo[1,2-b]pyridazine]", "Emax": "10 to 20"}
{"smiles": "Cc1ccccc1-c1nnc2ccc(-c3ccc(C(N)=O)cc3)cn12", "note": "[compound 225, 4-[3-(o-tolyl)-[1,2,4]triazolo[4,3-a]pyridin-6-yl]benzamide]", "Emax": "20 to 50"}
{"smiles": "COc1cc(CNc2ccc3ncc(-c4ccc(N(C)C)cc4)n3n2)cc(OC)c1OC", "note": "[compound 49, 3-(4-dimethylaminophenyl)-N-[(3,4,5-trimethoxyphenyl)methyl]imidazo[1,2-b]pyridazin-6-amine]", "Emax": "10 to 20"}
{"smiles": "Nc1cccc(-c2cnc3ccc(NC4CCOCC4)nn23)c1", "note": "[compound 33, 3-(3-aminophenyl)-N-tetrahydropyran-4-yl-imidazo[1,2-b]pyridazin-6-amine]", "Emax": "20 to 50"}
{"smiles": "COc1cc(-c2nnc3ccc(-c4cccc(F)c4)cn23)ccc1O", "note": "[compound 217, 4-[6-(3-fluorophenyl)-[1,2,4]triazolo[4,3-a]pyridin-3-yl]-2-methoxy-phenol]", "Emax": "50 to 100"}
